Where no end group is shown, it is not given here.
What was measured:
Y. ruckeri 392/2003 = assay: MIC testing (CLSI broth microdilution); format: cell-based; settings: Table 6, triplicates
Experimental: (§1) The minimum inhibitory concentrations (MICs) of the AMPs were measured in 96-well microtiter plates according the Clinical and Laboratory Standards Institute [CLSI, formerly National Committee for Clinical Laboratory Standards (NCCLS)] (Wikler et al., [2009]). Liquid Mueller-Hinton-II medium containing increasing concentrations of AMPs is inoculated with a defined number of cells (~10^5 CFUs/ml) in 96-well microtiter plates (polypropylene). Each microtiter plate includes a positive growth control and a negative control (sterile control). After incubation, the minimal inhibitory concentration (MIC) is determined by the lowest concentration showing no visible growth. All plates were incubated for 16–20 h.

S. typhimurium LT2 = assay: MIC testing (CLSI broth microdilution); format: cell-based; settings: Table 6, triplicates
Experimental: as §1

E. coli ATCC25922 = format: cell-based, Escherichia coli; settings: Table 6; E. coli ATCC25922 wild-type; triplicates
Source text: (§2) The E. coli strains 470, F632, F653 and F2513 were kindly provided by Prof. H. Brade and Prof. S. Muller-Loennies, Research Center Borstel, Leipniz-Center for Medicine and Biosciences, Germany. E. coli BW25113 (CGSC#:7636), a derivative of F^−, λ^− E. coli K12 strain BD792 is the wild-type strain which was used in the generation of the KEIO collection and ordered from the Coli Genetic Stock Centre (CGSC, Yale University). E. coli JW3596, E. coli JW3024, E. coli JW3595, E. coli JW3606, E. coli JW0212, E. coli JW1667, E. coli JW0554, E. coli JW3605 and E. coli JW3600 are isogenic mutants of waaC, waaE, waaF, waaG, gmhA (lpcA), lpp, ompT, waaP, or waaY derived from the parental strain E. coli BW25113 and were ordered from the KEIO collection (Baba et al., [2006]). E. coli ATCC25922 is a clinical isolate, serotype O6, often used as control strain in antimicrobial susceptibility testing was ordered from the ATCC strain collection. All strains were grown in Mueller-Hinton-II medium and incubation took place aerobically at 37°C for 18–20 h.
as §1

E. coli ATCC25922 ΔwaaE = format: cell-based, Escherichia coli; settings: Table 6, triplicates
Source text: as §2, §1

E. coli ATCC25922 ΔwaaF = format: cell-based, Escherichia coli; settings: Table 6, triplicates
Source text: as §2, §1

E. coli ATCC25922 ΔwaaC = format: cell-based, Escherichia coli; settings: Table 6, triplicates
Source text: as §2, §1

E. coli ATCC25922 ΔwaaG = format: cell-based, Escherichia coli; settings: Table 6, triplicates
Source text: as §2, §1

[1] = test system: E. coli BW25113 waaG::kan; format: cell-based, Escherichia coli; settings: Table 3; BW25113 waaG::kan; Mueller-Hinton-II, 16–20 h; duplicates (*) or triplicates
Source text: as §2, §1

E. coli F632 (R2) = format: cell-based, Escherichia coli; settings: Table 4; E. coli F632 (R2 prototype, rough LPS); triplicates
Source text: as §2, §1

[2] = test system: E. coli BW25113 waaC::kan; format: cell-based, Escherichia coli; settings: Table 3; BW25113 waaC::kan; Mueller-Hinton-II, 16–20 h; duplicates (*) or triplicates
Source text: as §2, §1

E. coli F470 (R1) = format: cell-based, Escherichia coli; settings: Table 4; E. coli F470 (R1 prototype, rough LPS); triplicates
Source text: as §2, §1

[3] = test system: E. coli BW25113 waaE::kan; format: cell-based, Escherichia coli; settings: Table 3; BW25113 waaE::kan; Mueller-Hinton-II, 16–20 h; duplicates (*) or triplicates
Source text: as §2, §1

[4] = test system: E. coli BW25113 waaF::kan; format: cell-based, Escherichia coli; settings: Table 3; BW25113 waaF::kan; Mueller-Hinton-II, 16–20 h; duplicates (*) or triplicates
Source text: as §2, §1

[5] = test system: E. coli BW25113 ompT::kan; format: cell-based, Escherichia coli; settings: Table 3; BW25113 ompT::kan; Mueller-Hinton-II, 16–20 h; duplicates (*) or triplicates
Source text: as §2, §1

E. coli F2513 (R4) = format: cell-based, Escherichia coli; settings: Table 4; E. coli F2513 (R4 prototype, rough LPS); triplicates
Source text: as §2, §1

E. coli F653 (R3) = format: cell-based, Escherichia coli; settings: Table 4; E. coli F653 (R3 prototype, rough LPS); triplicates
Source text: as §2, §1

[6] = test system: E. coli BW25113 gmhA::kan; format: cell-based, Escherichia coli; settings: Table 3; BW25113 gmhA::kan; Mueller-Hinton-II, 16–20 h; duplicates (*) or triplicates
Source text: as §2, §1

E. coli BW25113 = format: cell-based, Escherichia coli; settings: Table 3; E. coli BW25113 wild type; Mueller-Hinton-II, ~10^5 CFUs/ml, 16–20 h; duplicates (*) or triplicates
Source text: as §2, §1

Row | Sequence | Antimicrobial activity: MIC (Y. ruckeri 392/2003) | Antimicrobial activity: MIC (S. typhimurium LT2) | Antimicrobial activity: MIC (E. coli ATCC25922) | Antimicrobial activity: MIC (E. coli ATCC25922 ΔwaaE) | Antimicrobial activity: MIC (E. coli ATCC25922 ΔwaaF) | Antimicrobial activity: MIC (E. coli ATCC25922 ΔwaaC) | Antimicrobial activity: MIC (E. coli ATCC25922 ΔwaaG) | MIC [1] | Antimicrobial activity (MIC) (E. coli F632 (R2)) | MIC [2] | Antimicrobial activity (MIC) (E. coli F470 (R1)) | MIC [3] | MIC [4] | MIC [5] | Antimicrobial activity (MIC) (E. coli F2513 (R4)) | Antimicrobial activity (MIC) (E. coli F653 (R3)) | MIC [6] | MIC (E. coli BW25113)
1 | GLRKRLRKFRNKPKEKLKKIGQKIQGLLPKLAPRTDY [I13P] | ≥64 µg/mL | 16 to 32 µg/mL | ≥64 µg/mL | 32 µg/mL | 16 µg/mL | 32 µg/mL | 32 µg/mL | – | – | – | – | – | – | – | – | – | – | –
2 | GLRKRLRKFRNKIKEKLKKIGQKNQGLLPKLAPRTDY [I24N] | ≥64 µg/mL | 32 µg/mL | ≥64 µg/mL | 16 µg/mL | 8 µg/mL | 8 µg/mL | 16 µg/mL | – | – | – | – | – | – | – | – | – | – | –
3 | GLRKRLRKFRNKIKEKLKKIGQKIQTLLPKLAPRTDY [G26T] | 2 to 4 µg/mL | 4 to 8 µg/mL | 8 µg/mL | 4 µg/mL | 4 µg/mL | 4 µg/mL | 4 µg/mL | – | – | – | – | – | – | – | – | – | – | –
4 | GLRKRLRKFRNKMKEKLKKIGQKIQGLLPKLAPRTDY [I13M] | 4 µg/mL | 8 µg/mL | 8 µg/mL | 8 µg/mL | 4 µg/mL | 4 µg/mL | 4 µg/mL | – | – | – | – | – | – | – | – | – | – | –
5 | KLRKLFRKLLKLIRKLLR [Cap11-1-18 m^2] | – | – | – | – | – | – | – | 8 µg/mL | 16 to 32 µg/mL | 8 µg/mL | 32 µg/mL | 8 µg/mL | 8 µg/mL | 8 ^* μg/ml | 8 to 16 µg/mL | ≥32 µg/mL | 8 ^* μg/ml | 8 to 16 µg/mL
6 | GLRKRLRKFRNKIKEDLKKIGQKIQGLLPKLAPRTDY [K16D] | 4 µg/mL | 4 µg/mL | 4 µg/mL | 8 µg/mL | 2 µg/mL | 2 µg/mL | 4 µg/mL | – | – | – | – | – | – | – | – | – | – | –
7 | GLRKRLRKFRNKDKEKLKKIGQKIQGLLPKLAPRTDY [I13D] | ≥64 µg/mL | ≥64 µg/mL | ≥64 µg/mL | ≥64 µg/mL | ≥64 µg/mL | ≥64 µg/mL | ≥64 µg/mL | – | – | – | – | – | – | – | – | – | – | –
8 | GLRKRLRKFRNKIKEKLPKIGQKIQGLLPKLAPRTDY [K18P] | 32 µg/mL | 4 µg/mL | 8 µg/mL | 4 µg/mL | 4 µg/mL | 2 µg/mL | 4 µg/mL | – | – | – | – | – | – | – | – | – | – | –
9 | GLRKRLRKFRNKFKEKLKKIGQKIQGLLPKLAPRTDY [I13F] | 2 µg/mL | 4 µg/mL | 4 µg/mL | 2 µg/mL | 2 µg/mL | 2 µg/mL | 2 µg/mL | – | – | – | – | – | – | – | – | – | – | –
